Data: patent US9688708B2, “Photolabile compounds” (The Trustees of Columbia University In The City of New York, priority 2003, dated 2017)
Read-outs that look alike come from different tables or passages of the source.

Experiments:
mouse cortical neuron = assay: Whole-cell patch-clamp of mouse cortical neuron, perfusion of TzGly; format: cell-based; settings: 1 μM
Text: FIGS. 13A and 13B: FIG. 13A depicts the structure of TzGly. […] The measurement results were obtained by the whole-cell patch-clamp method, as known and used in the art.

[1] = test system: Retzius (Rz) cells in the ganglion; assay: Intracellular voltage recording of leech ganglion neuron with Xe flash irradiation; format: cell-based, Hirudo medicinalis; settings: for action potential activity on addition to saline, before irradiation: ~100 μM in saline, no light flash; for action potential activity after light flash: pulsed Xe lamp flash, UV removed by band-pass filter at 500 nm
Experimental: Hirudo medicinalis has a central nerve cord with several ganglia, each one containing about 400 neurons arranged in a known pattern. (W.-R. Schlue et al., 1980, J. Exp. Biol., 82:23-34). An entire ganglion was mounted on a dish. The transmembrane potential for a single cell (a neuron) in the ganglion was recorded by inserting inside the neuron a glass micropipet with a micrometer-sized end, filled with saturated aqueous KCl that acts as a luggin bridge for an Ag/AgCl electrode. Another Ag/AgCl electrode was used as a reference. The signal was taken with an AM-System 1600 amplifier, and the entire setup was covered with a Faraday cage. A 12 bit A/D acquisition card was used to digitize the data using an ad-hoc program written in QuickBasic.
Low Ca^2+-high Mg^2+ saline solution (NaCl, 102 mM; KCl, 4 mM; CaCl2: 1 mM; and MgCl2: 10 mM; Tris base, pH 5.4 adjusted to 7.4) was perfused through the dish. […] A pulsed Xe lamp located under the dish was used to irradiate the solution. UV light was removed using a band-pass filter at 500 nm.
After impaling the cell with an electrode, many experiments were performed on the same cell to ensure reproducibility. […] 300 seconds later, at 5500 s, a light flash was directed to the ganglion.

[2] = UV-vis spectra of Ru(bpy)2(4AP)2 before and after photolysis; dark stability and recombination; format: physicochemical
Experimental: The photoproducts after exposure to light were Ru(bpy)2(4AP)(H2O) and free 4AP.
(§1) UV-vis spectra in water were obtained with an HP 8453 diode array spectrophotometer. RMN ^1H spectra were obtained using a Bruker 500 MHz equipment. CV measurements were performed with a PAR 273A potentiostat. Irradiation was effected by means of a pulsed Xe lamp, (pulse energy ˜0.5 J), with a low-pass filter at 480 nm. Irradiation using a 473 nm DPSS laser gave similar results.

[3] = Cyclic voltammetry in water, RuIII/RuII redox potential; format: physicochemical; settings: measured in water
Experimental: The supporting electrolyte was KNO3 (1 M). dE/dt=100 mV/s in glassy carbon electrode.
as §1
(§2) (See, e.g., E. S. Dodsworth et al., 1986, Chem. Phys. Lett., 124:152-158). The photoactivity of these compounds has been explained in terms of a reaction pathway that involves the transition between the MLCT state to a lower-energy d-d state, which promotes ligand release. There is a direct correspondence between the energy of the MLCT transition and the quantum yield of the photoreaction. For [Ru(bpy)2(4AP)CH3CN]^2+, the photoreaction yield is about φPR=0.4. Since [Ru(bpy)2(4AP)2]Cl2 presents a red-shifted band, a lower photoreaction yield is expected. An estimate based on early experiments leads to an estimate of φPR≅0.02 at 473 nm.

[4] = Quantum yield of the photoreaction; format: physicochemical
Text: as §2

[5] = 1H NMR before and after irradiation with visible light (photorelease of 4AP); format: physicochemical; settings: after irradiation with visible light, from NMR signal integration
Experimental: as §1
Although at pH 7 the spectrum of the irradiated complex is very similar to that of the original complex, a diminished shoulder at 470 nm becomes evident. To determine the nature of the photoreaction, NMR spectra were taken before and after irradiation with visible light. […] After irradiation, this signal decreased, and two new signals appeared at lower fields: one corresponding to the free ligand (m3), and the other corresponding to the aquo-4AP complex (m2), indicating photorelease of the 4AP. These two latter signals integrated for 0.30 and 0.27 of the initial signal, which corresponds to a photoreaction of 60%.

[6] = Photorelease of TzGly by localized irradiation; format: physicochemical; settings: irradiation at 470 nm, light spot diameter <1 micron

NC(C(=O)O)c1nnn[nH]1 (racemic) [TzGly, (RS)-(tetrazol-5-yl)glycine]
neuron spiking on addition via perfusion (mouse cortical neuron): spiking of a mouse cortical neuron

[Cl][Ru][Cl].c1ccc(-c2ccccn2)nc1.c1ccc(-c2ccccn2)nc1.c1ccc(-c2ccccn2)nc1 [Ru(bpy)3Cl2, reference compound]
action potential activity on addition to saline, before irradiation [1]: without significant changes in activity | action potential activity after light flash ([1]; ~100 μM): after a short time the activity decreased to the basal level

[Ru(bpy)2(4AP)2]Cl2
time without dark decomposition ([2]; in the dark, UV-vis): more than 20 hours | 4AP recombination ([2]; irradiated solution after 7 hours in the dark): less than 4% | action potential activity on addition to saline, before irradiation [1]: the activity remained unchanged | action potential activity after light flash ([1]; ~100 μM): sudden activity was recorded and it remained high after 300 s | action potential activity after second light pulse ([1]; ~100 μM, second light pulse at 6750 s): an even higher activity | redox potential of the couple RuIII/RuII [3]: 0.76 V versus Ag/AgCl | photoreaction yield φPR ([4]; at 473 nm, estimate based on early experiments): ~0.02 | photoreaction (photorelease of 4AP) [5]: 60%

[Ru(bpy)2(4AP)CH3CN]^2+
photoreaction yield φPR [4]: ~0.4

[Ru(bpy)2(TzGly)(py)]Cl2
photorelease on irradiation [6]: photoreleased TzGly
